# Assays:
# A498 = assay: CellTiter-Blue cell viability assay, A498 cell line; assay type: cell-based; conditions: Homo sapiens, 72 hour treatment, concentration that inhibits cell growth by 50 percent of control
# Experimental: (§1) Cell viability in the presence of varying concentrations of the above listed compounds at different time points was used to assess cytotoxicity and the effect of the compounds on cell proliferation.
# (§2) Cell viability was measured by the CellTiter-Blue® cell viability assay Promega (Madison, Wis.). This procedure measures the conversion of the indicator dye (resazurin) to resorufin, an indicator of cell viability. Following treatment, growth media was removed and cells were incubated with 20 μl of CellTiter-Blue® Reagent and growth media for 1-4 hours at 37° C. Fluorescence values were measured at 535/590 nm using a Beckman-Coulter DTX-880 microplate reader.
# (§3) Cells were grown to 70% confluency, trypsinized, counted, and seeded in 96 well flat-bottom plates at a final concentration of 2.5×10^3-5×10^3 cells/well (Day 0). Cells were allowed to incubate in growth media for 24 hours to allow for maximum adhesion. Treatment with the test agents or standard agents began on Day 1 and continued for 72 hours. At the 72 hour timepoint, treatment containing media was removed. Viable cell numbers were quantified by the CellTiter-Blue® cell viability assay as described above. Experiments were repeated at least twice with the same concentrations to determine growth inhibitory activity. Results from these studies were used to calculate an IC50 value (concentration of drug that inhibits cell growth by 50 percent of control) for each compound.
# (§4) For single agent and combination studies, data from each experiment were collected and expressed as % Cell Growth using the following calculation: % Cell Growth=(ftest/fvehicle)×100 where ftest is the fluorescence of the tested sample, and fvehicle is the fluorescence of the vehicle in which the drug is dissolved. Dose response graphs and IC50 values were generated using Prism 4 software (GraphPad) using the following equation: Y=(Top−Bottom)/(1+10^((log IC50−X)[…])) where X is the logarithm of concentration and Y is the response. Y starts at the Bottom and goes to Top with a sigmoid shape.
# AN3CA = assay: CellTiter-Blue cell viability assay, AN3CA cell line; assay type: cell-based; conditions: Homo sapiens, AN3-CA, 72 hour treatment, concentration that inhibits cell growth by 50 percent of control
# Experimental: as §1, §2, §3, §4
Compound,IC50 (A498),IC50 (AN3CA)
Cc1ccc(C(C)C)cc1-c1cc(C(F)(F)F)nn1-c1ccc(S(N)(=O)=O)cc1 [Compound 4],1.1 µM,830 nM
Cc1ccc(Br)c(-c2cc(C(F)(F)F)nn2-c2ccc(S(N)(=O)=O)cc2)c1 [Compound 6],6.9 µM,1500 nM
COc1ccc(C(C)C)cc1-c1cc(C(F)(F)F)nn1-c1ccc(S(N)(=O)=O)cc1 [Compound 7],12 µM,5800 nM
NS(=O)(=O)c1ccc(-n2nc(C(F)(F)F)cc2-c2cc(-c3ccncc3)ccc2F)cc1 [Compound 20],–,3000 nM
Cc1cc(-c2ccncc2)cc(-c2cc(C(F)(F)F)nn2-c2ccc(S(N)(=O)=O)cc2)c1 [Compound 22],–,1200 nM
NS(=O)(=O)c1ccc(-n2nc(C(F)(F)F)cc2-c2cccc(-c3ccn[nH]3)c2)cc1 [Compound 34],12 µM,2100 nM
CN(C)c1ccc(-c2ccn[nH]2)cc1-c1cc(C(F)(F)F)nn1-c1ccc(S(N)(=O)=O)cc1 [Compound 36],–,9100 nM
Cc1ccc(-c2cccnc2)cc1-c1cc(C(F)(F)F)nn1-c1ccc(S(N)(=O)=O)cc1 [Compound 46],10 µM,9100 nM
Cc1ccc(-c2ccn[nH]2)cc1-c1cc(C2CC2)nn1-c1ccc(S(N)(=O)=O)cc1 [Compound 73],7.9 µM,3300 nM
Cc1cc(-c2cc(C3CC3)nn2-c2ccc(C(=O)NO)cc2)ccc1Cl [Compound 76],–,9000 nM
Cc1ccc(Br)cc1-c1cc(C(F)(F)F)nn1-c1ccc(S(N)(=O)=O)cc1 [Example 1],11 µM,7600 nM
CN(C)c1ccc(Br)cc1-c1cc(C(F)(F)F)nn1-c1ccc(S(N)(=O)=O)cc1 [Example 2],1.2 µM,600 nM
Cc1ccc(-c2ccncc2)cc1-c1cc(C(F)(F)F)nn1-c1ccc(S(N)(=O)=O)cc1 [Example 11],8.9 µM,10 nM
Cc1ccc(-c2ccn[nH]2)cc1-c1cc(C(F)(F)F)nn1-c1ccc(S(N)(=O)=O)cc1 [Example 12],14 µM,40 nM

# — patent US10584119B2, “Pyrazole compounds and methods of use thereof” (TRANSLATIONAL DRUG DEVELOPMENT, LLC, priority 2013, dated 2020)
